According to ChEMBL document CHEMBL1201862, “PubChem BioAssay data set” (2004):
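Assay format: 96-well plates, 48-hour exposure. GI50 is the concentration that inhibits growth by half.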 Activity calls are given as the source filed them. No stated cut-off is given here; in the data, active = GI50 up to about 1.1 µM and inactive = higher.

What was measured:
Experiment in all cases: DTP human tumour cell line panel, 48 h
[1] = system: HL-60
[2] = system: EKVX
[3] = system: MDA-MB-231
[4] = system: SNB-75
[5] = system: UACC-62
[6] = system: TK-10
[7] = system: NCI-H522
[8] = system: OVCAR-4
[9] = system: SW-620
[10] = system: SR
[11] = system: NCI/ADR-RES
[12] = system: CAKI-1
[13] = system: Hs-578T
[14] = system: BT-549
[15] = system: KM12
[16] = system: CCRF-CEM
[17] = system: HCT-15
[18] = system: LOX IMVI
[19] = system: UO-31
[20] = system: RXF 393

Compound | GI50 [1] | GI50 [2] | GI50 [3] | GI50 [4] | GI50 [5] | GI50 [6] | GI50 [7] | GI50 [8] | GI50 [9] | GI50 [10] | GI50 [11] | GI50 [12] | GI50 [13] | GI50 [14] | GI50 [15] | GI50 [16] | GI50 [17] | GI50 [18] | GI50 [19] | GI50 [20]
O=C(O)CN1CCN2CCCCCN(CC1)CCN(CC(=O)O)CC2 | 5.26 µM (inactive) | > 100 µM (inactive) | > 100 µM (inactive) | 11.4 µM (inactive) | > 100 µM (inactive) | > 100 µM (inactive) | 53.3 µM (inactive) | > 100 µM (inactive) | 83.9 µM (inactive) | 45.1 µM (inactive) | 22.1 µM (inactive) | > 100 µM (inactive) | 31.8 µM (inactive) | > 100 µM (inactive) | 84.7 µM (inactive) | > 100 µM (inactive) | > 100 µM | > 100 µM (inactive) | > 100 µM (inactive) | –
CC(CS(=O)(=O)Cc1ccccc1)C(N)=O (stereo not drawn) | > 100 µM (inactive) | > 100 µM (inactive) | > 100 µM (inactive) | – | > 100 µM (inactive) | > 100 µM (inactive) | > 100 µM (inactive) | > 100 µM (inactive) | > 100 µM (inactive) | > 100 µM (inactive) | > 100 µM (inactive) | > 100 µM (inactive) | > 100 µM (inactive) | > 100 µM (inactive) | > 100 µM (inactive) | – | > 100 µM | > 100 µM (inactive) | > 100 µM (inactive) | –
CN(C)CCNC(=O)c1cccc(CO)c1[N+](=O)[O-] | > 100 µM (inactive) | – | > 100 µM (inactive) | 75 µM (inactive) | > 100 µM (inactive) | > 100 µM (inactive) | > 100 µM (inactive) | – | > 100 µM (inactive) | > 100 µM (inactive) | > 100 µM (inactive) | > 100 µM (inactive) | > 100 µM (inactive) | > 100 µM (inactive) | > 100 µM (inactive) | > 100 µM (inactive) | > 100 µM | – | > 100 µM (inactive) | –
O=C1CC2(CCC(O)(c3ccc(Cl)cc3)C(C(=O)c3ccc(Cl)cc3)C2)C(=O)c2ccccc2N1 (stereo not drawn) | 11 µM (inactive) | > 23.6 µM (inactive) | 10.2 µM (inactive) | 0.146 µM (active) | 14.8 µM (inactive) | 9.86 µM (inactive) | 11.7 µM (inactive) | 0.877 µM (active) | 27.4 µM (inactive) | – | 11.6 µM (inactive) | 9.62 µM (inactive) | 1.48 µM (inactive) | 19.7 µM (inactive) | > 100 µM (inactive) | 4.61 µM (inactive) | > 42.7 µM | 11.7 µM (inactive) | 17.6 µM (inactive) | 4.89 µM (inactive)
O=C(O)C1OC1(c1cccc(Cl)c1)c1ccccc1Cl (stereo not drawn) | 17.2 µM (inactive) | 25.4 µM (inactive) | 18.1 µM (inactive) | 19.9 µM (inactive) | 14.8 µM (inactive) | 31.5 µM (inactive) | 24.5 µM (inactive) | 23.5 µM (inactive) | 20.7 µM (inactive) | – | 18.1 µM (inactive) | 20.5 µM (inactive) | 25.4 µM (inactive) | 18.8 µM (inactive) | 29.6 µM (inactive) | 11.2 µM (inactive) | 6.76 µM | 18 µM (inactive) | 20.8 µM (inactive) | 27.4 µM (inactive)
N#Cc1cnn2cc[nH]c12 | > 100 µM (inactive) | > 100 µM (inactive) | > 100 µM (inactive) | > 100 µM (inactive) | > 100 µM (inactive) | > 100 µM (inactive) | > 100 µM (inactive) | > 100 µM (inactive) | > 100 µM (inactive) | > 100 µM (inactive) | > 100 µM (inactive) | > 100 µM (inactive) | > 100 µM (inactive) | > 100 µM (inactive) | > 100 µM (inactive) | > 100 µM (inactive) | > 100 µM | – | > 100 µM (inactive) | –
